# According to patent US4395405A, “Alkyl-ketohexopyranoside derivatives and method of use” (Hisamitsu Pharmaceutical Co., Inc., priority 1979, dated 1983):
# Legend:
# IgE antibodies [1] = experiment: Formation of homocytotropic antibodies in rats, PCA (passive cutaneous anaphylaxis) reaction; format: in vivo, rats of wistar strain
# Method: (§1) Effects on the formation of homocytotropic antibodies in rats
# (§2) An experiment was carried out in accordance with the Tada and Okumura's method (J. Immunol., Vol. 106, p 1002, 1971).
# (§3) Groups each consisting of 8-9 rats of wistar strain were used in this experiment.
# (§4) As shown in Tables 2-5, to the four legs of the rats were injected 1 mg of dinitrophenylated extract of ascaris suum (DNP-As) as protein and 10^10 cells of vaccinum pertussis (B. Pertussis) for sensitization, after which the compounds of this invention were administered to the injected rats for 5 days. Eight to nine days after the sensitization, bloodletting was effected on these rats to collect their serum for estimating the amount of antibodies formed using passive cutaneous anaphylaxis (PCA) reactions and phytohemaglutinin (PHA) reactions.
# (1) Estimation of the amount of antibodies by PCA reaction:
# The collected serum was diluted in various concentrations and intradermally injected to other rats. Forty-eight (48) hours after the injection, 2 mg of DNP-As as protein and 0.5 ml of a 1% Evans Blue were intravenously injected into these rats to determine the dilution of the serum which induced the minimum extravasted dye. It should be noted that the symbols "*" and "**" in the following Tables indicate significant differences at risks of 5% and 1%, respectively. […]
# IgG and IgM [2] = experiment: Amount of antibodies formed in rats, PHA (phytohemaglutinin) reaction; format: in vivo, rats of wistar strain
# Method: as §1, §2, §3, §4
# (2) Estimation of the amount of antibodies by PHA reaction:
# The collected serum was diluted in various concentrations and incubated with sheep red blood cells coupled with DNP-As using bis-diazoated benzydine to determine the dilution of the serum which induced the minimum hemaglutination. […]
# IgE antibodies [3] = experiment: Formation of homocytotropic antibodies in mice, PCA reaction; format: in vivo, mice (BALB/c strain), female; conditions: 100 mg/Kg/day for 5 days
# Method: The collected serum was diluted in various concentrations and intradermally injected to other rats. Forty-eight (48) hours after the injection, 2 mg of DNP-As as protein and 0.5 ml of a 1% Evans Blue were intravenously injected into these rats to determine the dilution of the serum which induced the minimum extravasted dye. It should be noted that the symbols "*" and "**" in the following Tables indicate significant differences at risks of 5% and 1%, respectively.
# (§5) Effects on the formation of homocytotropic antibodies in mice
# (§6) Groups each consisting of 5 female mice (BALB/c strain) were used in this experiment. The mice were sensitized with 10 μg of DNP-As as protein and 3 mg of Al(OH)3, after which the test compound was administered to the sensitized mice for 5 days (at a dose of 100 mg/Kg/day). After the sensitization, a sample of serum was collected from the mice and treated in the same manner as in Experiment 1 to determine the amount of antibodies formed. […]
# [4] = Acute poisoning test on rats; conditions: rat, in vivo, three weeks
# Method: (§7) Each of the test compounds was suspended in a physiological solution of sodium chloride containing 0.5% of tragacanth gum to obtain a test suspension. The test suspensions so obtained were administered to rats and mice in various ways. LD50 was calculated from test animals which died in three weeks after the start of the test.
# [5] = Acute poisoning test on mice; conditions: mouse, in vivo, three weeks
# Method: as §7
# IgG and IgM [6] = experiment: Amount of antibodies formed in mice, PHA reaction; format: in vivo, mice (BALB/c strain), female; conditions: 100 mg/Kg/day for 5 days
# Method: The collected serum was diluted in various concentrations and incubated with sheep red blood cells coupled with DNP-As using bis-diazoated benzydine to determine the dilution of the serum which induced the minimum hemaglutination.
# as §5, §6
# [7] = Table 2, abdominal and oral administration, 5 days, serum 8 days after sensitization, control 237 (169-337)
# [8] = Table 2, abdominal and oral administration, 5 days, serum 9 days after sensitization, control 169 (119-223)
# [9] = Table 4, oral administration, serum 8 days after the sensitization, control 320 (270-370)
# [10] = Table 6, oral, serum 10 days after sensitization, control 256 ± 128
# [11] = Table 6, oral, serum 21 days after sensitization, control 1024 ± 0
# [12] = Table 6, oral, serum 30 days after sensitization, control 299 ± 43
# [13] = Table 3 left half, hypodermic administration, serum 8 days after sensitization, control 144.5 (117.5-177.8)
# [14] = Table 11, hypodermic, serum 9 days after, control 380.2 (269.2-537.0), 100 mg/kg/day
# [15] = Table 9, hypodermic, serum 37 days after, control 3467.37 (2013.72-3767.04)
# [16] = Table 5 left half, hypodermic administration, serum 8 days after sensitization, control 1318.3 (933.3-1862.1)
# [17] = Table 11, hypodermic, serum 9 days after, control 380.2 (269.2-537.0)
# [18] = Table 11, hypodermic, serum 10 days after, control 109.7 (95.5-125.9)
# [19] = Table 11, hypodermic, serum 37 days after, control 1071.5 (871.0-1318.3)
# [20] = Table 7, oral, serum 10 days after sensitization, control 537.0 (436.5-660.7)
# [21] = Table 8, hypodermic, serum 9 days after, control 708.0 (575.4-871.0)
# [22] = Table 8, hypodermic, serum 10 days after, control 537.0 (380.2-758.6)
# [23] = Table 8, hypodermic, serum 37 days after, control 2818.4 (1862.1-4265.8)
# [24] = Table 10, oral, serum 10 days after, control 125.9 (95.5-166.0)
# [25] = Table 3 right half, hypodermic administration, serum 8 days after sensitization, control 269.2 (218.8-331.1)
# [26] = Table 5 right half, hypodermic administration, serum 8 days after sensitization, control 3235.9 (2454.7-4265.8)
Compound,PCA of rat: dilution of the serum which induced the minimum extravasted dye (IgE antibodies [1]; [7]),PCA of rat: dilution of the serum which induced the minimum extravasted dye (IgE antibodies [1]; [8]),PHA of rat: dilution of the serum which induced the minimum hemaglutination (IgG and IgM [2]; [9]),PCA of mice (serum dilution) (IgE antibodies [3]; [10]),PCA of mice (serum dilution) (IgE antibodies [3]; [11]),PCA of mice (serum dilution) (IgE antibodies [3]; [12]),PHA of mice (serum dilution) (IgG and IgM [6]; [17]),PHA of mice (serum dilution) (IgG and IgM [6]; [18]),PHA of mice (serum dilution) (IgG and IgM [6]; [19]),PCA of mice (serum dilution) (IgE antibodies [3]; [20]),PHA of mice (serum dilution) (IgG and IgM [6]; [24]),also measured
"CCCCOC1(CO)OCC(O)C(O)C1O [Compound No. 2, n-butyl-β-D-fructopyranoside]",147,84.4,600,–,–,–,–,–,–,–,–,–
"CC(C)COC1(CO)OCC(O)C(O)C1O [Compound No. 3, isobutyl-β-D-fructopyranoside]",73.5,97.0,630,118 ± 37,563 ± 125,256 ± 129,–,–,–,–,–,–
"CCCCCOC1(CO)OCC(O)C(O)C1O [Compound No. 4, n-pentyl-β-D-fructopyranoside]",52.0,51.9,3250,88 ± 24,328 ± 108,272 ± 80,–,–,–,–,–,"LD50 at 504 h ([4]; ip, abdominally, female): > 2780 mg/kg; LD50 at 504 h ([4]; ip, abdominally, male): > 2780 mg/kg; LD50 at 504 h ([4]; iv, intravenously, female): 660 mg/kg; LD50 at 504 h ([4]; iv, intravenously, male): 670 mg/kg; LD50 at 504 h ([4]; po, orally, female): > 4000 mg/kg; LD50 at 504 h ([4]; po, orally, male): > 4000 mg/kg; LD50 at 504 h ([4]; sc, hypodermically, female): 1300 mg/kg; LD50 at 504 h ([4]; sc, hypodermically, male): 1500 mg/kg; PCA of rat: dilution of the serum which induced the minimum extravasted dye (IgE antibodies [1]; [13]): 102.4; LD50 at 504 h ([5]; ip, abdominally, female): 2360 mg/kg; LD50 at 504 h ([5]; ip, abdominally, male): 2590 mg/kg; LD50 at 504 h ([5]; iv, intravenously, female): 930 mg/kg; LD50 at 504 h ([5]; iv, intravenously, male): 760 mg/kg; LD50 at 504 h ([5]; po, orally, female): 3790 mg/kg; LD50 at 504 h ([5]; po, orally, male): 3800 mg/kg; LD50 at 504 h ([5]; sc, hypodermically, female): 1080 mg/kg; LD50 at 504 h ([5]; sc, hypodermically, male): 1020 mg/kg; PHA of mice (serum dilution) (IgG and IgM [6]; [14]): 309.0 (251.2-380.2); PCA of mice (serum dilution) (IgE antibodies [3]; [15]): 177.83; PHA of rat: dilution of the serum which induced the minimum hemaglutination (IgG and IgM [2]; [16]): 2454.7"
"CC(C)CCOC1(CO)OCC(O)C(O)C1O [Compound No. 5, isopentyl-β-D-fructopyranoside]",–,90.5,–,316 ± 86,480 ± 142,448 ± 64,–,–,–,–,–,–
"CCCCCCOC1(CO)OCC(O)C(O)C1O [Compound No. 6, n-hexyl-β-D-fructopyranoside]",97.0,147,810,320,288,240,–,–,–,–,–,–
"CCCOC1(CO)OCC(O)C(O)C1O [Compound No. 7, n-propyl-α-L-sorbopyranoside]",–,–,–,–,–,–,309.0 (251.2-380.2),166.0 (134.9-204.2),1000 (758.6-1318.3),218.8,–,"LD50 at 504 h ([4]; ip, abdominally, male): > 5000 mg/kg; LD50 at 504 h ([4]; iv, intravenously, male): > 2000 mg/kg; LD50 at 504 h ([4]; po, orally, male): > 5000 mg/kg; LD50 at 504 h ([4]; sc, hypodermically, male): > 5000 mg/kg; PCA of rat: dilution of the serum which induced the minimum extravasted dye (IgE antibodies [1]; [13]): 67.6; LD50 at 504 h ([5]; ip, abdominally, male): > 1000 mg/kg; LD50 at 504 h ([5]; iv, intravenously, male): > 2000 mg/kg; LD50 at 504 h ([5]; po, orally, male): > 5000 mg/kg; LD50 at 504 h ([5]; sc, hypodermically, male): > 5000 mg/kg; PCA of mice (serum dilution) (IgE antibodies [3]; [21]): 660.7; PCA of mice (serum dilution) (IgE antibodies [3]; [22]): 407.4; PCA of mice (serum dilution) (IgE antibodies [3]; [23]): 1995.3; PHA of rat: dilution of the serum which induced the minimum hemaglutination (IgG and IgM [2]; [16]): 5248.1"
"CCCCOC1(CO)OCC(O)C(O)C1O [Compound No. 9, n-butyl-α-L-sorbopyranoside]",–,–,–,–,–,–,288.4 (245.5-354.8),102.3 (89.1-117.5),871.0 (660.7-1148.2),380.2,177.8,PCA of rat: dilution of the serum which induced the minimum extravasted dye (IgE antibodies [1]; [13]): 47.9; PCA of mice (serum dilution) (IgE antibodies [3]; [21]): 708.0; PCA of mice (serum dilution) (IgE antibodies [3]; [22]): 218.8; PCA of mice (serum dilution) (IgE antibodies [3]; [23]): 1513.6; PCA of mice (serum dilution) (IgE antibodies [3]; [15]): 251.19; PHA of rat: dilution of the serum which induced the minimum hemaglutination (IgG and IgM [2]; [16]): 5248.1
"CCCCCOC1(CO)OCC(O)C(O)C1O [Compound No. 11, n-pentyl-α-L-sorbopyranoside]",–,–,–,–,–,–,–,109.7 (83.2-144.5),1621.8 (1318.3-1995.3),501.2,177.8,PCA of rat: dilution of the serum which induced the minimum extravasted dye (IgE antibodies [1]; [25]): 154.9 (134.9-177.8); PHA of mice (serum dilution) (IgG and IgM [6]; [14]): 354.8 (288.4-457.1); PCA of mice (serum dilution) (IgE antibodies [3]; [15]): 177.83; PHA of rat: dilution of the serum which induced the minimum hemaglutination (IgG and IgM [2]; [26]): 3467.4 (2630.3-4570.8)
"CC(C)CCOC1(CO)OCC(O)C(O)C1O [Compound No. 12, isopentyl-2-L-sorbopyranoside]",–,–,–,–,–,–,218.8 (109.7-436.5),144.5 (125.9-166.0),1230.3 (871.0-1737.8),269.2,109.7,PCA of rat: dilution of the serum which induced the minimum extravasted dye (IgE antibodies [1]; [25]): 234.4 (204.2-269.2); PHA of rat: dilution of the serum which induced the minimum hemaglutination (IgG and IgM [2]; [26]): 6025.6 (4897.8-7413.1)
"CCCCCCOC1(CO)OCC(O)C(O)C1O [Compound No. 13, n-hexyl-α-L-sorbopyranoside]",–,–,–,–,–,–,125.9 (83.2-190.6),102.3 (89.1-117.5),1148.2 (758.6-1737.8),–,109.7,PCA of mice (serum dilution) (IgE antibodies [3]; [21]): 380.2; PCA of mice (serum dilution) (IgE antibodies [3]; [22]): 708.0; PCA of mice (serum dilution) (IgE antibodies [3]; [23]): 3235.9; PHA of rat: dilution of the serum which induced the minimum hemaglutination (IgG and IgM [2]; [26]): 4265.8 (2630.3-6918.3)
"O=P1(N(CCCl)CCCl)NCCCO1 (stereo not shown) [Cyclophosphamide, reference compound]",–,16.0,–,214 ± 103,561 ± 71,368 ± 146,–,–,–,–,–,–
